Reference: ChEMBL document CHEMBL4251578, “Design, synthesis and biological evaluation of novel 2-aminobenzamides containing dithiocarbamate moiety as histone deacetylase inhibitors and potent antitumor agents” (Eur J Med Chem, 2018)
pIC50: −log10 of the molar value.

Tests used:
[1] = test system: SMMC-7721; test: Cell cycle arrest in human SMMC7721 cells assessed as accumulation of cells at G0/G1 phase at 0.125 umol/L after 72 hrs by propidium iodide staining-based flow cytometric analysis (reference value: 80.65%); type: functional
[2] = test system: SMMC-7721; test: Cell cycle arrest in human SMMC7721 cells assessed as accumulation of cells at G0/G1 phase at 1 umol/L after 72 hrs by propidium iodide staining-based flow cytometric analysis (reference value: 80.65%); type: functional
[3] = test system: MGC-803; test: Antiproliferative activity against human MGC803 cells at 2 uM after 72 hrs by CCK-8 assay relative to control; type: functional; conditions: MGC-803, 72 h
[4] = test system: HeLa; test: Antiproliferative activity against human HeLa cells after 72 hrs by CCK-8 assay; type: functional, cell-based
[5] = test system: SMMC-7721; test: Cell cycle arrest in human SMMC7721 cells assessed as accumulation of cells at G2/M phase at 0.125 umol/L after 72 hrs by propidium iodide staining-based flow cytometric analysis (reference value: 14.14%); type: functional
[6] = test system: SMMC-7721; test: Induction of apoptosis in human SMMC7721 cells assessed as viable cells at 0.125 umol/L after 72 hrs by Alexa Fluor 488 Annexin/propidium iodide staining-based flow cytometric analysis (reference value: 97.14%); type: functional; conditions: SMMC-7721, 72 h, read-out: Activity
[7] = test system: SMMC-7721; test: Cell cycle arrest in human SMMC7721 cells assessed as accumulation of cells at S phase at 1 umol/L after 72 hrs by propidium iodide staining-based flow cytometric analysis (reference value: 5.21%); type: functional
[8] = test system: SMMC-7721; test: Induction of apoptosis in human SMMC7721 cells assessed as necrotic cells at 0.125 umol/L after 72 hrs by Alexa Fluor 488 Annexin/propidium iodide staining-based flow cytometric analysis (reference value: 2.48%); type: functional
[9] = test system: MGC-803; test: Antiproliferative activity against human MGC803 cells after 72 hrs by CCK-8 assay; type: functional, cell-based; conditions: for pIC50: MGC-803, 72 h
[10] = test system: SMMC-7721; test: Induction of apoptosis in human SMMC7721 cells assessed as early apoptotic cells at 0.125 umol/L after 72 hrs by Alexa Fluor 488 Annexin/propidium iodide staining-based flow cytometric analysis (reference value: 0.09%); type: functional
[11] = test system: SMMC-7721; test: Induction of apoptosis in human SMMC7721 cells assessed as necrotic cells at 4 umol/L after 72 hrs by Alexa Fluor 488 Annexin/propidium iodide staining-based flow cytometric analysis (reference value: 2.48%); type: functional
[12] = molecular target: T1, Protein deacetylase HDAC6 (Homo sapiens, UniProt Q9UBN7); test: Inhibition of human recombinant HDAC6 using Fluor de Lys-Green as substrate preincubated for 5 mins followed by substrate addition and measured after 1 hr by fluorescence assay
T1 sequence (Q9UBN7 whole entry): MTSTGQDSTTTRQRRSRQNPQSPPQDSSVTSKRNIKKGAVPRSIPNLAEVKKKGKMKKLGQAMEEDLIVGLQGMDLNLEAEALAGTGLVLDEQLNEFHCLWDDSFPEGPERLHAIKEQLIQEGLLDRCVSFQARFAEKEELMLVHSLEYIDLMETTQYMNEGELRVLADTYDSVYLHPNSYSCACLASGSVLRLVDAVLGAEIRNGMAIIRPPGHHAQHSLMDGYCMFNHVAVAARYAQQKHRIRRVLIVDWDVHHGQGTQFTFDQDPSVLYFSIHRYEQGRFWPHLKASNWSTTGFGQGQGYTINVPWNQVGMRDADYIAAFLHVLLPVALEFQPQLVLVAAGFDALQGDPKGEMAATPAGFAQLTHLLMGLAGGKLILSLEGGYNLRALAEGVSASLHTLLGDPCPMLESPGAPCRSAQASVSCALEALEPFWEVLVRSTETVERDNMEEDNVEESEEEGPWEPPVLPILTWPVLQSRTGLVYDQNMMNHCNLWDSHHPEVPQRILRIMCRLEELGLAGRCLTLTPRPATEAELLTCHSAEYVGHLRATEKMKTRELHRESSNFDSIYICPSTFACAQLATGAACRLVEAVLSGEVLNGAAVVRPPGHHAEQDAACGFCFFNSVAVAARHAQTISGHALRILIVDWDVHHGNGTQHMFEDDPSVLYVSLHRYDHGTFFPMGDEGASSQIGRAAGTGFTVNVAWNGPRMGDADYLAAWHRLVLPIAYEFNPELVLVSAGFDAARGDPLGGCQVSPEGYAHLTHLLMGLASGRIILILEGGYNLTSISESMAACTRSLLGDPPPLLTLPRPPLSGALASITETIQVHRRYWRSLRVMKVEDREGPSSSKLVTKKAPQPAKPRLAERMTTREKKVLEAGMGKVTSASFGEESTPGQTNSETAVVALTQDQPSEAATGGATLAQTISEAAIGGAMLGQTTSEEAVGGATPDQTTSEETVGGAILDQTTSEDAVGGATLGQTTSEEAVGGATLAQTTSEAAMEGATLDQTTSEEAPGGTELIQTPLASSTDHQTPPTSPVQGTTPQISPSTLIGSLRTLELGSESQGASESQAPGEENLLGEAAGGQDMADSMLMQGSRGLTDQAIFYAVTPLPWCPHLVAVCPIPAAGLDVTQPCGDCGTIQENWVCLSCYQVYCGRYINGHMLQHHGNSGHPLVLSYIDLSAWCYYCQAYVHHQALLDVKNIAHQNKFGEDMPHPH

[13] = test system: A-375; test: Antiproliferative activity against human A375 cells after 72 hrs by CCK-8 assay; type: functional, cell-based; conditions: for pIC50: A-375, 72 h
[14] = test system: SMMC-7721; test: Induction of apoptosis in human SMMC7721 cells assessed as necrotic cells at 1 umol/L after 72 hrs by Alexa Fluor 488 Annexin/propidium iodide staining-based flow cytometric analysis (reference value: 2.48%); type: functional
[15] = test system: MGC-803; test: Antiproliferative activity against human MGC803 cells at 8 uM after 72 hrs by CCK-8 assay relative to control; type: functional; conditions: MGC-803, 72 h
[16] = test system: SMMC-7721; test: Cell cycle arrest in human SMMC7721 cells assessed as accumulation of cells at S phase at 4 umol/L after 72 hrs by propidium iodide staining-based flow cytometric analysis (reference value: 5.21%); type: functional
[17] = molecular target: Histone deacetylase 1 (Homo sapiens, UniProt Q13547); test: Inhibition of human recombinant HDAC1 using Fluor de Lys-Green as substrate preincubated for 5 mins followed by substrate addition and measured after 1 hr by fluorescence assay
[18] = test system: SMMC-7721; test: Induction of apoptosis in human SMMC7721 cells assessed as late apoptotic cells at 0.125 umol/L after 72 hrs by Alexa Fluor 488 Annexin/propidium iodide staining-based flow cytometric analysis (reference value: 0.29%); type: functional
[19] = test system: HeLa; test: Antiproliferative activity against human HeLa cells at 2 uM after 72 hrs by CCK-8 assay relative to control; type: functional
[20] = test system: A-375; test: Antiproliferative activity against human A375 cells at 2 uM after 72 hrs by CCK-8 assay relative to control; type: functional; conditions: A-375, 72 h
[21] = test system: SMMC-7721; test: Induction of apoptosis in human SMMC7721 cells after 72 hrs by Alexa Fluor 488 Annexin/propidium iodide staining-based flow cytometric analysis; type: functional, cell-based
[22] = test system: HCT-116; test: Antiproliferative activity against human HCT116 cells after 72 hrs by CCK-8 assay; type: functional, cell-based; conditions: for pIC50: HCT-116, 72 h

Sequence of Histone deacetylase 1 (Q13547 whole entry): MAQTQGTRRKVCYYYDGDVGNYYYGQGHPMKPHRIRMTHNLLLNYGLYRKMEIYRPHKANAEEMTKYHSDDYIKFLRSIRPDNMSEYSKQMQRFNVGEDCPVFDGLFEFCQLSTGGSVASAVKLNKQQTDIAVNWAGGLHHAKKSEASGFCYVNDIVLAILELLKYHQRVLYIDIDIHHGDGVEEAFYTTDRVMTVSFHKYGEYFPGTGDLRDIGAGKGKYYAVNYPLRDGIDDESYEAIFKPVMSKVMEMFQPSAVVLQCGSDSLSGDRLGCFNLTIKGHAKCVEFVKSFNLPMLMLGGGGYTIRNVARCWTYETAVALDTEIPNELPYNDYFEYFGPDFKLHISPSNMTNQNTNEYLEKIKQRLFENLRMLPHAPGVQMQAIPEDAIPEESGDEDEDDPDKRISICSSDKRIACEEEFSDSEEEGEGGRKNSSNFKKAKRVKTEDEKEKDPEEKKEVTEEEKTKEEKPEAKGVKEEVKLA

## Nc1ccccc1NC(=O)c1ccc(CSC(=S)N2CCN(c3ccncc3)CC2)cc1
[1]
  Activity: Dose-dependent effect
[1]; record 2
  Activity: 80.71%
[2]
  Activity: 79.27%
[3]
  inhibition at 2 µM: 64.8%
[4]
  Activity: Dose-dependent effect
  pIC50: 6.10
[5]
  Activity: 12.01%
[6]
  viability at 0.125 µM: 72.5%
[7]
  Activity: 7.04%
[8]
  Activity: 11.27%
[9]
  Activity: Dose-dependent effect
  pIC50: 5.80
[10]
  Activity: 3.66%
[11]
  Activity: 3.17%
[12]
  pIC50: < 4.40
[13]
  Activity: Dose-dependent effect
  pIC50: 5.90
[14]
  Activity: 5.01%
[15]
  inhibition at 8 µM: 87.1%
[16]
  Activity: 2.76%
[17]
  pIC50: 6.32
[18]
  Activity: 12.55%
[19]
  inhibition at 2 µM: 77%
[20]
  inhibition at 2 µM: 85.7%
[21]
  Activity: Dose-dependent effect
[22]
  Activity: Dose-dependent effect
  pIC50: 6.27

## CCN(Cc1ccncc1)C(=S)SCc1ccc(C(=O)Nc2ccccc2N)cc1
[1]
  Activity: Dose-dependent effect
[1]; record 2
  Activity: 81.27%
[2]
  Activity: 71.44%
[3]
  inhibition at 2 µM: 71.6%
[4]
  pIC50: 5.98
[5]
  Activity: 11.92%
[6]
  viability at 0.125 µM: 73.1%
[7]
  Activity: 7.45%
[8]
  Activity: 12.93%
[9]
  pIC50: 5.86
[10]
  Activity: 2.75%
[11]
  Activity: 1.27%
[12]
  pIC50: < 4.40
[13]
  pIC50: 5.71
[14]
  Activity: 13.18%
[15]
  inhibition at 8 µM: 85.2%
[16]
  Activity: 9.19%
[17]
  pIC50: 5.86
[18]
  Activity: 11.22%
[19]
  inhibition at 2 µM: 63.5%
[20]
  inhibition at 2 µM: 67.2%
[21]
  Activity: Dose-dependent effect
[22]
  pIC50: 6.12

## Nc1ccccc1NC(=O)c1ccc(CSC(=S)N2CCc3ccccc3C2)cc1
[1]
  Activity: Dose-dependent effect
[1]; record 2
  Activity: 78.41%
[2]
  Activity: 67.59%
[3]
  inhibition at 2 µM: 80.9%
[4]
  pIC50: 5.84
[5]
  Activity: 15.89%
[6]
  viability at 0.125 µM: 71.2%
[7]
  Activity: 9.25%
[8]
  Activity: 3.49%
[9]
  pIC50: 6.03
[10]
  Activity: 14.71%
[11]
  Activity: 1.94%
[12]
  pIC50: < 4.40
[13]
  pIC50: 5.71
[14]
  Activity: 2.9%
[15]
  inhibition at 8 µM: 87.5%
[16]
  Activity: 7.63%
[17]
  pIC50: 5.59
[18]
  Activity: 10.62%
[19]
  inhibition at 2 µM: 54.4%
[20]
  inhibition at 2 µM: 55.5%
[21]
  Activity: Dose-dependent effect
[22]
  pIC50: 5.81
